Data taken from patent US20100209486A1, “Method of enhancing CoenzymeQ10 levels in mammals” (priority 2009, published 2010).
Entries after “also recorded” stand apart in the source; their conditions may differ.

Assay: HPLC and MS determination of CoQ9 and CoQ10 in heart samples of supplemented guinea pigs
Assay type: in vivo, guinea pig
Settings: 5 mg/kg/day CoQ9 oral for 4 weeks, heart tissue
Procedure: FIG. 3. HPLC chromatograms of a) Blank (mobile phase) b) CoQ9 standard solution c) CoQ10 standard solution and d) CoQ9 heart sample. The standards and sample solution were analyzed using an Agilent 1100 HPLC. The mobile phase was methanol-2-propanol-formic acid (45:55:0.05, v/v/v) containing methylamine at the concentration of 5 mmol/L. At a flow rate of 0.2 ml/min, 5 μl injections of the samples were done using the autosampler. The CoQ9 peak eluted at 2.39 minutes and the CoQ10 eluted at 2.86 minutes. However, the CoQ9 heart sample peak eluted at […], which is the same as CoQ10, thus indicating the presence of CoQ10 rather than CoQ9 in the sample.
FIG. 4. Mass Spectrometry (MS). (a) CoQ10 standard, b) CoQ9 standard, c) CoQ10 heart sample) Methylamine was used in the mobile phase to obtain the methyl ammonium adduct molecules of CoQ9 and CoQ10. The sensitivity of the adduct ions [M+CH3NH3]^+ was much higher than that of the protonated ions [M+H]^+ [7]. The MS spectra of both [M+CH3NH3][…] at m/z 826.5 for CoQ9 and m/z 894.6 for CoQ10 were observed. However, the CoQ9 heart sample indicated a mass peak at m/z 894.6, which matches the peak for CoQ10 and not CoQ9. Therefore, there was evidence of CoQ10 in the CoQ9 heart sample from the mass spec. data. This confirmed the hypothesis of bio-conversion of CoQ9 to CoQ10.
However, the retention time of CoQ9 heart sample indicated a retention time of 2.86 minutes and not 2.39 minutes (FIG. 3d). The retention time of the CoQ9 heart sample matched with that of CoQ10 rather than CoQ9. The qualitative analysis was done by identifying the compounds by their retention times. It was obvious that at this point CoQ9 was probably bio-converted to CoQ10. […]
Preparation of CoQ9 and CoQ10 heart samples: Animal preparation, drug pretreatment and isolated working heart preparation were done as described in example 1. […] The samples were analyzed immediately after preparation, and the remainder of the standard solutions was stored at 5° C. for future analysis. […]

Structure (SMILES): COC1=C(OC)C(=O)C(C/C=C(\C)CC/C=C(\C)CC/C=C(\C)CC/C=C(\C)CC/C=C(\C)CC/C=C(\C)CC/C=C(\C)CC/C=C(\C)CCC=C(C)C)=C(C)C1=O [CoQ9, Coenzyme Q9]
- CoQ9 detected in the heart after CoQ9 supplementation: no CoQ9 could be detected in the heart; also recorded: very small or no amount of CoQ9
- bioconversion of CoQ9 into CoQ10: a substantial portion of CoQ9 had been bio-converted into CoQ10; also recorded: complete bioconversion of CoQ9 into CoQ10
- CoQ10 content in the heart after CoQ9 supplementation (control chromatogram subtracted): appreciable amount of CoQ10 in the heart tissue; also recorded: significantly high enrichment in the CoQ10 content
